Converted amounts (≈) assume the structure as drawn.
Columns and labels:
Enterobacter aerogenes = test: minimum inhibitory concentration (MIC), agar dilution; format: cell-based; details: Klebsiella aerogenes, ATCC13048; ATCC 13048; nutrient agar pH 6.8; read-out: MIC
Experimental: (§1) The minimum inhibitory concentration (MIC) for the compound of Example 19, i.e., (2-nitrophenyl)-iodonium 2,2-dimethyl-4,6-dioxo-1,3-dioxan-5-ylide was determined for 9 bacteria (using nutrient agar) and 5 yeast and fungi (using malt yeast agar). A one percent solution of this test compound (i.e., the compound of Example 19) was prepared in a mixture of acetone-water. Nutrient agar was prepared at pH 6.8 using deionized water according to standard Difco procedures. Malt yeast agar was prepared by adding 3 g Bacto yeast extract and 42 g Bacto Malt agar per liter of deionized water. The agar (nutrient agar when testing with bacteria and malt yeast agar when testing with yeast and fungi) was dispensed in 30 mL aliquots into 25×200 millimeter (mm) test tubes, capped and autoclaved for 15 min at 115° C. The test tubes containing the agar were cooled in a water bath until the temperature of the agar was 48° C. and then an appropriate amount of the one percent solution of the test compound was added (except in the controls where no test compound was added with the acetone-water) to the respective test tubes so that final concentrations of 500, 250, 100, 50, 25, 10, 5, 2.5, 1.0 and 0 parts per million (ppm) of the test compound in the agar were obtained. The agar solutions were each mixed and poured into individual petri plates so that each petri plate contained agar having a known concentration of test compound dispersed therein. After drying for 24 hr, the petri plates were inoculated with bacteria when the petri plates contained nutrient broth agar or with fungi and yeast when the petri plates contained malt yeast agar.
(§2) The inoculation with bacteria was accomplished using the following procedure. Twenty-four hr cultures of each of the bacteria were prepared by incubating the respective bacteria in tubes containing nutrient broth for 24 hr at 30° C. in a shaker. Dilutions of each of the 24 hr cultures were made so that 9 separate suspensions (one for each of the 9 test bacteria) were made, each containing about 10^8 colony forming units (CFU) per mL of suspension of a particular bacteria. Aliquots of 0.3 mL of each of the above suspensions were used to fill individual wells of a Steer's Replicator. For each microbial suspension, 0.3 mL was used to fill 3 wells (i.e., 3 wells of 0.3 mL each) so that for the 9 different bacteria 27 wells were filled. The Steer's Replicator was then used to inoculate the petri plates.
(§3) The petri plates were incubated at 30° C. for 48 hr and then read to determine if the test compound (i.e., the compound of Example 19) which was incorporated into the agar prevented growth of the respective bacteria. The minimum inhibitory concentration (MIC) for each bacteria was defined as the lowest concentration of the test compound which prevented growth of that bacteria.
(§4) In a similar procedure, the MIC (in ppm) of the compound of Example 11 (i.e., (2-nitrophenyl)-iodonium 2,6-dioxocyclohexylide) for various organisms was determined at an acid pH (about 6.8) and at an alkaline pH (about 8.2).
(§5) Using similar procedures, the MIC's (in ppm) of various compounds of Formula I and/or Formula II were determined for the organisms Enterobacter aerogenes and Bacillus subtilis in a neutral solution (pH about 6.8) and in an alkaline medium (pH about 8.2).

Bacillus subtilis = test: as above; format: cell-based; details: Bacillus subtilis, ATCC8473; ATCC 8473; nutrient agar pH 6.8; read-out: MIC
Experimental: as §1, §2, §3, §4, §5

In the case of `CC1(C)OC(=O)[C-]([I+]c2ccccc2[N+](=O)[O-])C(=O)O1` [Example 19, (2-Nitrophenyl)-iodonium 2,2-dimethyl-4,6-dioxo-1,3-dioxan-5-ylide], the MIC (Enterobacter aerogenes) is reported as 1 µg/mL (≈ 2.56 µM) and the MIC (Bacillus subtilis) is reported as no more than 1 µg/mL.

Source: patent US5106407A, “Iodones and methods for antimicrobial use” (priority 1989, dated 1992)
